For one assay, the target named is T1, human CB1 receptor (Homo sapiens, UniProt P21554).
T1 construct: expressed in transfected cells; host or cells: CHO cells (membrane fraction)
The assay is described as follows: [3H]-CP55,940 binding inhibition assay, CHO cell membrane fraction expressing human CB1 receptor. The method, then:
(§1) [^3H]-CP55,940 binding assay with a cell membrane fraction expressing human CB1 and CB2 receptor
(§2) [^3H]-CP55940 binding inhibition assay was conducted by incubating a CHO cell membrane fraction expressing human CB1 receptor and the test compound and 500 pM [^3H]-CP55940 in reaction buffer (50 mM Tris-HCl (pH7.4), 5 mM MgCl2, 2.5 mM EDTA and 0.5% BSA (fatty acid free)) at room temperature for 60 minutes. The reaction solution was filtered through GF/C filter, washed with 300 μl of washing buffer (50 mM Tris-HCl (pH7.4), 0.05% BSA (fatty acid free)) four times, and the radioactivity of the filter was measured with a Top Count scintillation counter (Packard). As results, the test compound has inhibited binding of [^3H]-CP55940 to the membrane fraction dose-dependently.
(§3) The inhibitory activity of the test compound to [^3H]-CP55940 binding was calculated by percent on the basis that radioactivity is 100% when only 500 pM [^3H]-CP55940 was added, and 0% when 500 pM [^3H]-CP55940 and 100 nM CP55940 were added at the same time. Further, IC50 value of the test compound was calculated by analyzing concentrations and percents of the test compound with PRISM 3.0 (Graphpad Software, Inc.).

The target in a further assay is T2, CB1 receptor (Mus musculus, UniProt P47746).
T2 construct: from tissue; host or cells: whole animal, Jcl: ICR male mice
The assay is described as follows: Body temperature-lowering action on mouse (CB1 receptor agonistic activity in vivo). The following applies: Jcl: ICR male mice, 1 mg/kg i.p., rectal temperature 30 minutes after administration, compared with control group. The method, then:
Body temperature-lowering action on mouse
CB1 receptor agonistic activity of the compound of the present invention in vivo was evaluated by investigating the effect on the body temperature of mouse after the drug was administered to the mouse. In this experiment, Jcl: ICR male mice (5 weeks old) were used. After measuring the rectal temperature with a thermometer (Physitemp BAT-12) that was connected to a probe for measuring body temperature, the compound dissolved in 2.2% EtOH and 5% G2-β-cyclodextrin (solvent) was administered intraperitoneally. Solvent only was administered to the control group. 30 minutes after administration, rectal temperature was measured again. The experiment was conducted for 4 subjects per a group.

The next assay concerns the target T3, human CB2 receptor (Homo sapiens, UniProt P34972).
T3 construct: expressed in transfected cells; host or cells: CHO cells (membrane fraction)
The assay is described as follows: [3H]-CP55,940 binding inhibition assay, CHO cell membrane fraction expressing human CB2 receptor. As for the experimental part:
as §1, §2, §3
The same assay was also conducted for a CHO cell membrane fraction expressing human CB2 receptor, and the inhibitory activity to [^3H]-CP55940 binding was calculated.

Where two headings read alike, the source gives them in different places.

T2 sequence (P47746 whole entry): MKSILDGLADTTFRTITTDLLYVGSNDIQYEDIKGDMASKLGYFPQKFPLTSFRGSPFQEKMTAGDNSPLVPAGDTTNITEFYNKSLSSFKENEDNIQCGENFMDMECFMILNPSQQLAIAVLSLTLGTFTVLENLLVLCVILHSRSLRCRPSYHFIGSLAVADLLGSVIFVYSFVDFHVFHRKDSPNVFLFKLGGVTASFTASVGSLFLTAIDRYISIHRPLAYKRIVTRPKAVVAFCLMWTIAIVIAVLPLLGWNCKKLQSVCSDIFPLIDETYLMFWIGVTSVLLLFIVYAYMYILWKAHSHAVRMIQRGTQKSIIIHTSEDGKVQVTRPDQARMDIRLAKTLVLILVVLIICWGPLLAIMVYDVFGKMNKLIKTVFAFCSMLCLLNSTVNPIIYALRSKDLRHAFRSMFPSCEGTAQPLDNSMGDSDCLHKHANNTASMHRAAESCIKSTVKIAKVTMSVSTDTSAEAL
T1 sequence (P21554 whole entry): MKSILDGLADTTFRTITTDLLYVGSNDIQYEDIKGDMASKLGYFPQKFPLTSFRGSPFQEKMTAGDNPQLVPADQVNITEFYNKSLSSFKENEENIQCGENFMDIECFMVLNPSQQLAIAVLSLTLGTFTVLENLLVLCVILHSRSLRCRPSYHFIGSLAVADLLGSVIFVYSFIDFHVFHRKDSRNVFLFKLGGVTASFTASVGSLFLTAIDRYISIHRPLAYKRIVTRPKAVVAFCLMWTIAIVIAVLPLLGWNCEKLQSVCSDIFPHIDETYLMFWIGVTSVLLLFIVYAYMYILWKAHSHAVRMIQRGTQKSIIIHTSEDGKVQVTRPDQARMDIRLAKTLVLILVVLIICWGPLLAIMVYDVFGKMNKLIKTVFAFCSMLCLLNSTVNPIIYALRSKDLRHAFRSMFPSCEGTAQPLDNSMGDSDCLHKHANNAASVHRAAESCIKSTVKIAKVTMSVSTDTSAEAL
T3 sequence (P34972 whole entry): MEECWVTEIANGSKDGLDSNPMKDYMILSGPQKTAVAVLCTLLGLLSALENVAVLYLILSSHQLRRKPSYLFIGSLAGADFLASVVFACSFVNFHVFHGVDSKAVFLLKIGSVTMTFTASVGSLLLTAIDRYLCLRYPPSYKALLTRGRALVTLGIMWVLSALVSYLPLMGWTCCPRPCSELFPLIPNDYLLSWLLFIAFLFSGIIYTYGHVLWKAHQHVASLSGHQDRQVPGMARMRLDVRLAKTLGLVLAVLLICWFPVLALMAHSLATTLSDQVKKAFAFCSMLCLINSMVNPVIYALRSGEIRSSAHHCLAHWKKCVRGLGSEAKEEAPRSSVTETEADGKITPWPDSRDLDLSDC

As to `Cc1c(NC(=O)CC(C)(C)C)c(C)c2c(c1C(C)O)OCC2c1ccc(C(C)C)cc1` (single isomer, unassigned) [Example 28, N-(7-(1-Hydroxyethyl)-3-(4-isopropylphenyl)-4,6-dimethyl-2,3-dihydro-1-benzofuran-5-yl)-3,3-dimethylbutanamide], the IC50 at human CB1 receptor and on human CB2 receptor was < 10 nM throughout. In addition, the “Test Results (body temperature-lowering action)” value at CB1 receptor is “Effective (estimated as effective if the compound of the present invention lowered the body temperature substantially by 1 °C or more when compared with the control group 30 minutes after administration of 1 mg/kg, i.p.)”.
For the molecule `Cc1c(NC(=O)CC(C)(C)C)c(C)c2c(c1C(C)O)OCC2c1ccc(C(C)C)cc1` (single isomer, unassigned) [Example 29, N-(7-(1-Hydroxyethyl)-3-(4-isopropylphenyl)-4,6-dimethyl-2,3-dihydro-1-benzofuran-5-yl)-3,3-dimethylbutanamide], the IC50 (as a rule, the concentration that inhibits the measured activity by half) on human CB1 receptor (read-out: CB1 IC50 value, 500 pM [3H]-CP55940, CHO cell membrane fraction expressing human CB1 receptor, room temperature, 60 minutes) was < 10 nM; on human CB2 receptor (read-out: CB2 IC50 value, 500 pM [3H]-CP55940, CHO cell membrane fraction expressing human CB2 receptor), < 10 nM. The “Test Results (body temperature-lowering action)” value on CB1 receptor was “Effective (estimated as effective if the compound of the present invention lowered the body temperature substantially by 1 °C or more when compared with the control group 30 minutes after administration of 1 mg/kg, i.p.)”.
With `CCC(O)c1c(C)c(NC(=O)CC(C)(C)C)c(C)c2c1OCC2c1ccc(C(C)C)cc1` (single isomer, unassigned) [Example 31, N-(7-(1-Hydroxypropyl)-3-(4-isopropylphenyl)-4,6-dimethyl-2,3-dihydro-1-benzofuran-5-yl)-3,3-dimethylbutanamide], the half-inhibitory concentration (IC50) on human CB1 receptor and at human CB2 receptor was < 10 nM throughout. The “Test Results (body temperature-lowering action)” value at CB1 receptor is “Effective (estimated as effective if the compound of the present invention lowered the body temperature substantially by 1 °C or more when compared with the control group 30 minutes after administration of 1 mg/kg, i.p.)”.
Turning to `Cc1c(C)c2c(c(C)c1NC(=O)CC(C)(C)C)C(c1ccc(C(C)C)cc1)CO2` (stereo not drawn) [Example 1, N-(3-(4-Isopropylphenyl)-4,6,7-trimethyl-2,3-dihydro-1-benzofuran-5-yl)-3,3-dimethylbutanamide], the IC50 at human CB1 receptor is 20 nM; at human CB2 receptor it was < 10 nM. Besides, the “Test Results (body temperature-lowering action)” value at CB1 receptor is “Effective (estimated as effective if the compound of the present invention lowered the body temperature substantially by 1 °C or more when compared with the control group 30 minutes after administration of 1 mg/kg, i.p.)”.
Regarding `Cc1c(C)c2c(c(C)c1NC(=O)CC(C)(C)C)[C@@H](c1ccc(C(C)C)cc1)CO2` [Example 7, (+)-N-((3R)-3-(4-Isopropylphenyl)-4,6,7-trimethyl-2,3-dihydro-1-benzofuran-5-yl)-3,3-dimethylbutanamide], the IC50 on human CB1 receptor and at human CB2 receptor was < 10 nM each time. Further, on CB1 receptor, the “Test Results (body temperature-lowering action)” value is “Effective (estimated as effective if the compound of the present invention lowered the body temperature substantially by 1 °C or more when compared with the control group 30 minutes after administration of 1 mg/kg, i.p.)”.
Take `CCC(=O)Nc1c(C)c(C)c2c(c1C)C(c1ccc(C(C)C)cc1)CO2` (stereo not drawn) [Example 9, N-(3-(4-Isopropylphenyl)-4,6,7-trimethyl-2,3-dihydro-1-benzofuran-5-yl)propionamide]: the IC50 came to 79 nM on human CB1 receptor and 11 nM on human CB2 receptor.
For `Cc1c(C)c2c(c(C)c1NC(=O)NC(C)(C)C)C(c1ccc(C(C)C)cc1)CO2` (stereo not drawn) [Example 14, N-(tert-Butyl)-N′-(3-(4-isopropylphenyl)-4,6,7-trimethyl-2,3-dihydro-1-benzofuran-5-yl)urea], the figures for the IC50 on human CB1 receptor and at human CB2 receptor were 20 nM and < 10 nM, respectively. At CB1 receptor, the “Test Results (body temperature-lowering action)” value was “Effective (estimated as effective if the compound of the present invention lowered the body temperature substantially by 1 °C or more when compared with the control group 30 minutes after administration of 1 mg/kg, i.p.)”.
`Cc1c(NC(=O)CC(C)(C)C)c(C)c2c(c1C(C)O)OCC2c1ccc(C(C)C)cc1` (stereo not drawn) [Example 22, N-(7-(1-Hydroxyethyl)-3-(4-isopropylphenyl)-4,6-dimethyl-2,3-dihydro-1-benzofuran-5-yl)-3,3-dimethylbutanamide]: the half-inhibitory concentration (IC50) is 11 nM at human CB1 receptor and < 10 nM on human CB2 receptor. In addition, the “Test Results (body temperature-lowering action)” value on CB1 receptor was “Effective (estimated as effective if the compound of the present invention lowered the body temperature substantially by 1 °C or more when compared with the control group 30 minutes after administration of 1 mg/kg, i.p.)”.
With `CCc1c(C)c(NC(=O)CC(C)(C)C)c(C)c2c1OCC2c1ccc(C(C)C)cc1` (stereo not drawn) [Example 23, N-(7-Ethyl-3-(4-isopropylphenyl)-4,6-dimethyl-2,3-dihydro-1-benzofuran-5-yl)-3,3-dimethylbutanamide], the IC50 at human CB1 receptor and at human CB2 receptor was < 10 nM throughout. Besides, the “Test Results (body temperature-lowering action)” value on CB1 receptor was “Effective (estimated as effective if the compound of the present invention lowered the body temperature substantially by 1 °C or more when compared with the control group 30 minutes after administration of 1 mg/kg, i.p.)”.
For `CC(=O)c1c(C)c(NC(=O)CC(C)(C)C)c(C)c2c1OCC2c1ccc(C(C)C)cc1` (stereo not drawn) [Example 32, N-(7-Acetyl-3-(4-isopropylphenyl)-4,6-dimethyl-2,3-dihydro-1-benzofuran-5-yl)-3,3-dimethylbutanamide], the IC50 at human CB1 receptor and at human CB2 receptor was < 10 nM throughout. The “Test Results (body temperature-lowering action)” value at CB1 receptor was “Effective (estimated as effective if the compound of the present invention lowered the body temperature substantially by 1 °C or more when compared with the control group 30 minutes after administration of 1 mg/kg, i.p.)”.
As to `Cc1c(NC(=O)CC(C)(C)C)c(C)c(C(C)(C)O)c2c1C(c1ccc(C(C)C)cc1)CO2` (stereo not drawn) [Example 33, N-(7-(1-Hydroxy-1-methylethyl)-3-(4-isopropylphenyl)-4,6-dimethyl-2,3-dihydro-1-benzofuran-5-yl)-3,3-dimethylbutanamide], the IC50 at human CB1 receptor is 14 nM; on human CB2 receptor, < 10 nM. In addition, on CB1 receptor, the “Test Results (body temperature-lowering action)” value is “Effective (estimated as effective if the compound of the present invention lowered the body temperature substantially by 1 °C or more when compared with the control group 30 minutes after administration of 1 mg/kg, i.p.)”.
Consider `CCCc1c(C)c(NC(=O)CC(C)(C)C)c(C)c2c1OCC2c1ccc(C(C)C)cc1` (stereo not drawn) [Example 34, N-(3-(4-Isopropylphenyl)-4,6-dimethyl-7-propyl-2,3-dihydro-1-benzofuran-5-yl)-3,3-dimethylbutanamide], for which the IC50 at human CB1 receptor and at human CB2 receptor was < 10 nM in each case. The “Test Results (body temperature-lowering action)” value at CB1 receptor is “Effective (estimated as effective if the compound of the present invention lowered the body temperature substantially by 1 °C or more when compared with the control group 30 minutes after administration of 1 mg/kg, i.p.)”.
`Cc1c(Br)c2c(c(C)c1NC(=O)CC(C)(C)C)C(c1ccc(C(C)C)cc1)CO2` (stereo not drawn) [Example 35, N-(7-Bromo-3-(4-isopropylphenyl)-4,6-dimethyl-2,3-dihydro-1-benzofuran-5-yl)-3,3-dimethylbutanamide]: the half-maximal inhibitory concentration (IC50) at human CB1 receptor and on human CB2 receptor was < 10 nM throughout. In addition, the “Test Results (body temperature-lowering action)” value at CB1 receptor is “Effective (estimated as effective if the compound of the present invention lowered the body temperature substantially by 1 °C or more when compared with the control group 30 minutes after administration of 1 mg/kg, i.p.)”.
For the molecule `CCOC(=O)C(C)(C)Oc1cc(C)cc(C)c1Cc1ccc(C(C)C)cc1` [Reference Example 153], the IC50 stood at 110 nM on human CB1 receptor (500 pM [3H]-CP55940, CHO cell membrane fraction expressing human CB1 receptor, room temperature, 60 minutes, read-out: CB1 IC50 value) and 560 nM at human CB2 receptor (500 pM [3H]-CP55940, CHO cell membrane fraction expressing human CB2 receptor, read-out: CB2 IC50 value).
Take `Cc1cc(C)c2c(c1)SCC2c1ccc(C(C)C)cc1` (stereo not drawn) [Reference Example 212]: the IC50 is 69 nM on human CB1 receptor and < 10 nM at human CB2 receptor.
`Cc1ccc(C)c2c1OC(=O)C2c1ccc(C(C)C)cc1` (stereo not drawn) [Reference Example 230]: the IC50 at human CB1 receptor and at human CB2 receptor was 55 nM each time.
On to `Cc1ccc(C)c(C(CO)c2ccc(C(C)C)cc2)c1O` (stereo not drawn) [Reference Example 233], for which the IC50 worked out at 38 nM on human CB1 receptor and 47 nM on human CB2 receptor.
Regarding `Cc1c(C)c(C(CO)c2ccc(C(C)C)cc2)c(O)c(C)c1Br` (stereo not drawn) [Reference Example 234], the 50% inhibitory concentration (IC50) at human CB1 receptor was 40 nM; at human CB2 receptor, 31 nM.
